Results published in US11311520B2, “Substituted dihydroimidazopyridinediones as MKNK1 and MKNK2 inhibitors” (Bayer Pharma Aktiengesellschaft, priority 2017, dated 2022).

What follows are compounds tested against human full-length MKNK1 (Homo sapiens (Human), UniProt Q9BUB5, T344D) (assay: MKNK1 kinase high ATP assay (TR-FRET)). Conditions: 2 mM ATP, 15 min preincubation with enzyme, GST-MKNK1 (T344D).
Chain of human full-length MKNK1 (Q9BUB5 other isoform, or with tags, fused parts or gaps T344D): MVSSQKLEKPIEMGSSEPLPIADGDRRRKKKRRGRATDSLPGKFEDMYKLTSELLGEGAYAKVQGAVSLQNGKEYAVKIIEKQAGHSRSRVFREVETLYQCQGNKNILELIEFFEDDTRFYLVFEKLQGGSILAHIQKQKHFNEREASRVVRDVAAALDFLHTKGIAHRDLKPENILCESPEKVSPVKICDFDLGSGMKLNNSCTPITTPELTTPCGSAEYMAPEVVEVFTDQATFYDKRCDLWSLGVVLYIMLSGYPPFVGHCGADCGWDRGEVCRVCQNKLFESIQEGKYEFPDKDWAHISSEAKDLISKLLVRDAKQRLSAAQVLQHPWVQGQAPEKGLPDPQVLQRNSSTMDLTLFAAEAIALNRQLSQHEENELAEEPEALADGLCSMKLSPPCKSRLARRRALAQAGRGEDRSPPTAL
Format: biochemical
Method in brief: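 GST-tagged full-length human MKNK1 (1-424, T344D, baculovirus-expressed) preincubated 15 min at 22 °C with compound, then reacted 30 min at 22 °C with 2 mM ATP and 0.06 μM biotinylated peptide (final) in HEPES pH 7.5. Phospho-substrate by TR-FRET (665/622 nm ratio), normalised to no-inhibitor and no-enzyme controls.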
`Cc1ccc2c(Nc3cc(C)c4n(c3=O)C3(CCCCC3)NC4=O)ncnc2c1` [Example 121, 8′-Methyl-6′-[(7-methylquinazolin-4-yl)amino]-2′H-spiro[cyclohexane-1,3′-imidazo[1,5-a]pyridine]-1′,5′-dione] gave an IC50 of 7.1 nM.
With `Cc1ccc2ncnc(Nc3cc(C)c4n(c3=O)C3(CCCCC3)NC4=O)c2c1` [Example 122, 8′-Methyl-6′-[(6-methylquinazolin-4-yl)amino]-2′H-spiro[cyclohexane-1,3′-imidazo[1,5-a]pyridine]-1′,5′-dione] the IC50 was 13.2 nM.
`Cc1cc(Nc2ncnc3cccc(C)c23)c(=O)n2c1C(=O)NC21CCCCC1` [Example 123, 8′-Methyl-6′-[(5-methylquinazolin-4-yl)amino]-2′H-spiro[cyclohexane-1,3′-imidazo[1,5-a]pyridine]-1′,5′-dione] was tested, and the IC50 was 9.7 nM.
`Cc1cc(Nc2ncnc3ccc(C(F)(F)F)cc23)c(=O)n2c1C(=O)NC21CCCCC1` [Example 124, 8′-Methyl-6′-{[6-(trifluoromethyl)quinazolin-4-yl]amino}-2′H-spiro[cyclohexane-1,3′-imidazo[1,5-a]pyridine]-1′,5′-dione] was tested, and the IC50 was 49.9 nM.
`Cc1cc(Nc2ncnc3c2CNC3)c(=O)n2c1C(=O)NC21CCC(F)(F)CC1` [Example 125, 6′-(6,7-Dihydro-5H-pyrrolo[3,4-d]pyrimidin-4-ylamino)-4,4-difluoro-8′-methyl-2′H-spiro[cyclohexane-1,3′-imidazo[1,5-a]pyridine]-1′,5′-dione] was tested, and the IC50 was 46.5 nM.
`Cc1cc(Nc2ncnc3c2CNC3)c(=O)n2c1C(=O)NC21CCCC1` [Example 126, 6′-(6,7-Dihydro-5H-pyrrolo[3,4-d]pyrimidin-4-ylamino)-8′-methyl-2′H-spiro[cyclopentane-1,3′-imidazo[1,5-a]pyridine]-1′,5′-dione] was tested, and the IC50 was 20.3 nM.
Compound `Cc1cc(Nc2ncnc(N)n2)c(=O)n2c1C(=O)NC21CCC(O)(C(F)(F)F)CC1` (stereo not drawn) [Example 127, 6′-[(4-Amino-1,3,5-triazin-2-yl)amino]-4-hydroxy-8′-methyl-4-(trifluoromethyl)-2′H-spiro[cyclohexane-1,3′-imidazo[1,5-a]pyridine]-1′,5′-dione] has an IC50 of 71.2 nM.
`Cc1cc(Nc2ncnc3[nH]ccc23)c(=O)n2c1C(=O)NC21CCC(O)(C(F)(F)F)CC1` (stereo not drawn) [Example 128, 4-Hydroxy-8′-methyl-6′-(7H-pyrrolo[2,3-d]pyrimidin-4-ylamino)-4-(trifluoromethyl)-2′H-spiro[cyclohexane-1,3′-imidazo[1,5-a]pyridine]-1′,5′-dione] gave an IC50 of 1 nM.
In the case of `Cc1cc(Nc2ncnc3sc(C(=O)NCCN(C)C)cc23)c(=O)n2c1C(=O)NC21CCC(O)(C(F)(F)F)CC1` (stereo not drawn) [Example 129, N-[2-(Dimethylamino)ethyl]-4-{[4-hydroxy-8′-methyl-1′,5′-dioxo-4-(trifluoromethyl)-1′,5′-dihydro-2′H-spiro[cyclohexane-1,3′-imidazo[1,5-a]pyridin]-6′-yl]amino}thieno[2,3-d]pyrimidine-6-carboxamide], the IC50 is reported as 21 nM.
For `Cc1cc(Nc2ncnc3sccc23)c(=O)n2c1C(=O)NC21CCC(O)(C(F)(F)F)CC1` (stereo not drawn) [Example 130, 4-Hydroxy-8′-methyl-6′-(thieno[2,3-d]pyrimidin-4-ylamino)-4-(trifluoromethyl)-2′H-spiro[cyclohexane-1,3′-imidazo[1,5-a]pyridine]-1′,5′-dione], the IC50 was 7.9 nM.
Work on `Cc1cc(Nc2ncnc(N)n2)c(=O)n2c1C(=O)NC2(C)C` [Example 131, 6-[(4-Amino-1,3,5-triazin-2-yl)amino]-3,3,8-trimethyl-2,3-dihydroimidazo[1,5-a]pyridine-1,5-dione] yielded an IC50 of 32.2 nM.
Compound `Cc1cc(Nc2ncnc3[nH]ccc23)c(=O)n2c1C(=O)NC2(C)C` [Example 132, 3,3,8-Trimethyl-6-(7H-pyrrolo[2,3-d]pyrimidin-4-ylamino)-2,3-dihydroimidazo[1,5-a]pyridine-1,5-dione] has an IC50 of 0.7 nM.
`Cc1cc(Nc2ncnc3[nH]ncc23)c(=O)n2c1C(=O)NC2(C)C` [Example 133, 3,3,8-Trimethyl-6-(1H-pyrazolo[3,4-d]pyrimidin-4-ylamino)-2,3-dihydroimidazo[1,5-a]pyridine-1,5-dione] gave an IC50 of 10.1 nM.
Work on `Cc1cc(Nc2ncnc3[nH]cnc23)c(=O)n2c1C(=O)NC2(C)C` [Example 134, 3,3,8-Trimethyl-6-(9H-purin-6-ylamino)-2,3-dihydroimidazo[1,5-a]pyridine-1,5-dione] yielded an IC50 of 5.8 nM.
`Cc1cc(Nc2ncnc3sccc23)c(=O)n2c1C(=O)NC2(C)C` [Example 135, 3,3,8-Trimethyl-6-(thieno[2,3-d]pyrimidin-4-ylamino)-2,3-dihydroimidazo[1,5-a]pyridine-1,5-dione] gave an IC50 of 19.8 nM.
For `Cc1cc(Nc2ncnc3sc(C(=O)O)cc23)c(=O)n2c1C(=O)NC2(C)C` [Example 136, 4-[(3,3,8-Trimethyl-1,5-dioxo-1,2,3,5-tetrahydroimidazo[1,5-a]pyridin-6-yl)amino]thieno[2,3-d]pyrimidine-6-carboxylic acid], the IC50 was 122 nM.
Work on `Cc1cc(Nc2ncnc3sc(C(=O)NCCN(C)C)cc23)c(=O)n2c1C(=O)NC2(C)C` [Example 137, N-[2-(Dimethylamino)ethyl]-4-[(3,3,8-trimethyl-1,5-dioxo-1,2,3,5-tetrahydroimidazo[1,5-a]pyridin-6-yl)amino]thieno[2,3-d]pyrimidine-6-carboxamide] yielded an IC50 of 21.1 nM.
Compound `Cc1cc(Nc2ncnc3sc(C(=O)N(C)CCN(C)C)cc23)c(=O)n2c1C(=O)NC2(C)C` [Example 138, N-[2-(Dimethylamino)ethyl]-N-methyl-4-[(3,3,8-trimethyl-1,5-dioxo-1,2,3,5-tetrahydroimidazo[1,5-a]pyridin-6-yl)amino]thieno[2,3-d]pyrimidine-6-carboxamide] has an IC50 of 33.6 nM.
For `Cc1cc(Nc2ncnc3sc(C(=O)N4CC(NC(=O)OC(C)(C)C)C4)cc23)c(=O)n2c1C(=O)NC2(C)C` [Example 139, tert-Butyl [1-({4-[(3,3,8-trimethyl-1,5-dioxo-1,2,3,5-tetrahydroimidazo[1,5-a]pyridin-6-yl)amino]thieno[2,3-d]pyrimidin-6-yl}carbonyl)azetidin-3-yl]carbamate], the IC50 was 24.1 nM.
For `Cc1cc(Nc2ncnc3sc(C(=O)N4CC(N)C4)cc23)c(=O)n2c1C(=O)NC2(C)C` [Example 140, 6-({6-[(3-Aminoazetidin-1-yl)carbonyl]thieno[2,3-d]pyrimidin-4-yl}amino)-3,3,8-trimethyl-2,3-dihydroimidazo[1,5-a]pyridine-1,5-dione], the IC50 was 22.3 nM.
In the case of `Cc1cc(Nc2ncnc3sc(C(=O)N4CC(C#N)C4)cc23)c(=O)n2c1C(=O)NC2(C)C` [Example 141, 1-({4-[(3,3,8-Trimethyl-1,5-dioxo-1,2,3,5-tetrahydroimidazo[1,5-a]pyridin-6-yl)amino]thieno[2,3-d]pyrimidin-6-yl}carbonyl)azetidine-3-carbonitrile], the IC50 is reported as 24.2 nM.
In the case of `Cc1cc(Nc2ncnc3sc(C(=O)N4CC[C@@H](N(C)C)C4)cc23)c(=O)n2c1C(=O)NC2(C)C` [Example 142, 6-[(6-{[(3R)-3-(Dimethylamino)pyrrolidin-1-yl]carbonyl}thieno[2,3-d]pyrimidin-4-yl)amino]-3,3,8-trimethyl-2,3-dihydroimidazo[1,5-a]pyridine-1,5-dione], the IC50 is reported as 20 nM.
`Cc1cc(Nc2ncnc3sc(C(=O)N4CCC(N(C)C)CC4)cc23)c(=O)n2c1C(=O)NC2(C)C` [Example 143, 6-[(6-{[4-(Dimethylamino)piperidin-1-yl]carbonyl}thieno[2,3-d]pyrimidin-4-yl)amino]-3,3,8-trimethyl-2,3-dihydroimidazo[1,5-a]pyridine-1,5-dione] showed an IC50 of 40.3 nM.
`Cc1cc(Nc2ncnc3sc(C(=O)N4C[C@H]5C[C@@H]4CO5)cc23)c(=O)n2c1C(=O)NC2(C)C` [Example 144, 3,3,8-Trimethyl-6-({6-[(1R,4R)-2-oxa-5-azabicyclo[2.2.1]hept-5-ylcarbonyl]thieno[2,3-d]pyrimidin-4-yl}amino)-2,3-dihydroimidazo[1,5-a]pyridine-1,5-dione] showed an IC50 of 12.9 nM.
With `Cc1cc(Nc2ncnc3sc(C(=O)O)c(C)c23)c(=O)n2c1C(=O)NC2(C)C` [Example 145, 5-Methyl-4-[(3,3,8-trimethyl-1,5-dioxo-1,2,3,5-tetrahydroimidazo[1,5-a]pyridin-6-yl)amino]thieno[2,3-d]pyrimidine-6-carboxylic acid] the IC50 was 115 nM.
`Cc1cc(Nc2ncnc(NC(=O)C3CC3)n2)c(=O)n2c1C(=O)NC21CCC1` [Example 146, N-{4-[(8′-Methyl-1′,5′-dioxo-1′,5′-dihydro-2′H-spiro[cyclobutane-1,3′-imidazo[1,5-a]pyridin]-6′-yl)amino]-1,3,5-triazin-2-yl}cyclopropanecarboxamide] was tested, and the IC50 was 8.2 nM.
`Cc1cc(Nc2ncnc(N)n2)c(=O)n2c1C(=O)NC21CCC1` [Example 147, 6′-[(4-Amino-1,3,5-triazin-2-yl)amino]-8′-methyl-2′H-spiro[cyclobutane-1,3′-imidazo[1,5-a]pyridine]-1′,5′-dione] showed an IC50 of 12.7 nM.
Compound `Cc1cc(Nc2ncnc3[nH]ccc23)c(=O)n2c1C(=O)NC21CCC1` [Example 148, 8′-Methyl-6′-(7H-pyrrolo[2,3-d]pyrimidin-4-ylamino)-2′H-spiro[cyclobutane-1,3′-imidazo[1,5-a]pyridine]-1′,5′-dione] has an IC50 of 0.4 nM.
Compound `Cc1cc(Nc2ncnc3sccc23)c(=O)n2c1C(=O)NC21CCC1` [Example 149, 8′-Methyl-6′-(thieno[2,3-d]pyrimidin-4-ylamino)-2′H-spiro[cyclobutane-1,3′-imidazo[1,5-a]pyridine]-1′,5′-dione] has an IC50 of 2.3 nM.
`Cc1cc(Nc2ncnc3sc(C(=O)O)cc23)c(=O)n2c1C(=O)NC21CCC1` [Example 150, 4-[(8′-Methyl-1′,5′-dioxo-1′,5′-dihydro-2′H-spiro[cyclobutane-1,3′-imidazo[1,5-a]pyridin]-6′-yl)amino]thieno[2,3-d]pyrimidine-6-carboxylic acid] was tested, and the IC50 was 18.5 nM.
